Measured values published in US6982279B2, “Arylated furan- and thiophenecarboxamides, processes for their preparation, their use as medicaments, and pharmaceutical preparations comprising them” (Aventis Pharm Deutschland GmbH, priority 2000, dated 2006).
pIC50: −log10 of the molar value.

Target: T1, Kv1.5 channels from humans (Homo sapiens, UniProt P22460)
T1 construct: expressed in transfected cells; host or cells: Xenopus laevis oocytes injected with in vitro synthesized RNA
Experiment: Kv1.5 currents in Xenopus oocytes, 2-microelectrode voltage clamp
Assay type: cell-based
Conditions: human Kv1.5 expressed in Xenopus laevis oocytes; voltage jumps to 0 mV and 40 mV lasting 500 ms; room temperature; Hill equation
Procedure: Kv1.5 channels from humans were expressed in Xenopus oocytes. To this end, oocytes from Xenopus laevis were first isolated and defolliculated. RNA coding for Kv1.5 synthesized in vitro was then injected into these oocytes. After a Kv1.5 protein expression for 1-7 days, Kv1.5 currents were measured on the oocytes using the 2-microelectrode voltage clamp technique. The Kv1.5 channels were in this case as a rule activated using voltage jumps to 0 mV and 40 mV lasting 500 ms. The bath was rinsed using a solution of the following composition: NaCl 96 mM, KCl 2 mM, CaCl2 1.8 mM, MgCl2 1 mM, HEPES 5 mM (titrated with NaOH to pH 7.4). These experiments were carried out at room temperature. The following were employed for data acquisition and analysis: Gene clamp amplifier (Axon Instruments, Foster City, USA) and MacLab D/A converter and software (ADInstruments, Castle Hill, Australia). The substances according to the invention were tested by adding them to the bath solution in different concentrations. The effects of the substances were calculated as the percentage inhibition of the Kv1.5 control current which was obtained when no substance was added to the solution. The data were then extrapolated using the Hill equation in order to determine the inhibition concentrations IC50 for the respective substances.

T1 sequence (P22460 whole entry): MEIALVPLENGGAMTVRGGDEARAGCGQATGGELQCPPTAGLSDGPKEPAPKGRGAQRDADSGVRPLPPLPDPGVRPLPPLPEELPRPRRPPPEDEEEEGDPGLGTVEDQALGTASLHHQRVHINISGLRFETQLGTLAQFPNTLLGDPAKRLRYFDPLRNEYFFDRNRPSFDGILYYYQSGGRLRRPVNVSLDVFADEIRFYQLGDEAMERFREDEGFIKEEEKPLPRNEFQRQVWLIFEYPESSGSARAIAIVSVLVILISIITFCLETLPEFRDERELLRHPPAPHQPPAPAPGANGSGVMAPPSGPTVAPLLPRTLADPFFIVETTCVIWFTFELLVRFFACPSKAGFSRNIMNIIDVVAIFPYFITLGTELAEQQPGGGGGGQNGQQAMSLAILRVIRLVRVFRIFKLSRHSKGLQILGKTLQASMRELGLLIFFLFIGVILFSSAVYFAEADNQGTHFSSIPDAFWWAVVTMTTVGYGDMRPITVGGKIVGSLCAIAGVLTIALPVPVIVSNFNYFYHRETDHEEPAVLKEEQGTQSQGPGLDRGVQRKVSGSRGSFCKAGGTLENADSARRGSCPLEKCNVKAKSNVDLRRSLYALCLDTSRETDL

| Structure (SMILES) | pIC50 |
| --- | --- |
| CC(C)(C)OC(=O)NCc1ccccc1-c1ccsc1C(=O)NCc1ccc(F)cc1F [Example 2] | 5.30 |
| CC(C)CCNC(=O)c1ccc(-c2ccccc2CNC(=O)OC(C)(C)C)o1 [Example 10] | > 4.00 |
| COc1ccc(CC(=O)NCc2ccccc2-c2ccsc2C(=O)NCc2ccc(F)cc2F)cc1 [Example 23] | 5.92 |
| CC(C)(C)OC(=O)NCc1ccccc1-c1ccc(C(=O)NCc2ccc(F)cc2F)o1 [Example 9] | > 4.00 |
| COc1ccc(CC(=O)NCc2ccccc2-c2occc2C(=O)NCc2ccc(F)cc2F)cc1 [Example 27] | 5.18 |
| COc1ccc(CC(=O)NCc2ccccc2-c2ccsc2C(=O)NCCC(C)C)cc1 [Example 22] | 5.77 |
| O=C(NCc1ccccc1-c1ccsc1C(=O)NCc1ccc(F)cc1F)OCc1ccccc1 [Example 12] | 5.70 |
| COc1ccc(CC(=O)NCc2ccccc2-c2ccoc2C(=O)NCc2ccc(F)cc2F)cc1 [Example 21] | 5.41 |
| CC(C)CCNC(=O)c1ccsc1-c1ccccc1CNC(=O)OC(C)(C)C [Example 6] | > 4.00 |
| COc1ccc(CC(=O)NCc2ccccc2-c2ccc(C(=O)NCc3ccc(F)cc3F)o2)cc1 [Example 29] | 5.38 |
| O=C(NCc1ccccc1-c1occc1C(=O)NCc1ccc(F)cc1F)OCc1ccccc1 [Example 18] | 5.28 |
| COc1ccc(CC(=O)NCc2ccccc2-c2sccc2C(=O)NCc2ccc(F)cc2F)cc1 [Example 25] | 5.82 |
| CC(C)CCNC(=O)c1occc1-c1ccccc1CNC(=O)OC(C)(C)C [Example 4] | 5.00 |
| O=C(NCc1ccccc1-c1ccoc1C(=O)NCc1ccc(F)cc1F)OCc1ccccc1 [Example 14] | > 4.00 |
| COc1ccc(CC(=O)NCc2ccccc2-c2occc2C(=O)NCCC(C)C)cc1 [Example 26] | 5.41 |
| CC(C)CCNC(=O)c1ccsc1-c1ccccc1CNC(=O)OCc1ccccc1 [Example 15] | 5.92 |
| CC(C)(C)OC(=O)NCc1ccccc1-c1ccoc1C(=O)NCc1ccc(F)cc1F [Example 3] | 5.05 |
| COc1ccc(CC(=O)NCc2ccccc2-c2ccoc2C(=O)NCCC(C)C)cc1 [Example 20] | > 4.00 |
| O=C(NCc1ccccc1-c1sccc1C(=O)NCc1ccc(F)cc1F)OCc1ccccc1 [Example 16] | 5.72 |
| CC(C)CCNC(=O)c1ccoc1-c1ccccc1CNC(=O)OC(C)(C)C [Example 8] | 5.28 |
| CC(C)CCNC(=O)c1sccc1-c1ccccc1CNC(=O)OCc1ccccc1 [Example 11, Benzyl {2-[2-(3-methylbutylcarbamoyl)thiophen-3-yl]-benzyl}carbamate] | 5.52 |
| CC(C)(C)OC(=O)NCc1ccccc1-c1occc1C(=O)NCc1ccc(F)cc1F [Example 7] | 5.00 |
| COc1ccc(CC(=O)NCc2ccccc2-c2sccc2C(=O)NCCC(C)C)cc1 [Example 24] | 5.66 |
| CC(C)CCNC(=O)c1occc1-c1ccccc1CNC(=O)OCc1ccccc1 [Example 13] | 5.25 |
| CC(C)CCNC(=O)c1sccc1-c1ccccc1CNC(=O)OC(C)(C)C [Example 1, tert-Butyl {2-[2-(3-methylbutylcarbamoyl)thiophen-3-yl]benzyl}carbamate] | 5.40 |
| CC(C)(C)OC(=O)NCc1ccccc1-c1sccc1C(=O)NCc1ccc(F)cc1F [Example 5] | 5.51 |
| O=C(NCc1ccccc1-c1ccc(C(=O)NCc2ccc(F)cc2F)o1)OCc1ccccc1 [Example 19] | > 4.00 |
| CC(C)CCNC(=O)c1ccoc1-c1ccccc1CNC(=O)OCc1ccccc1 [Example 17] | 5.66 |
| COc1ccc(CC(=O)NCc2ccccc2-c2ccc(C(=O)NCCC(C)C)o2)cc1 [Example 28] | > 4.00 |
